Data: patent US6949679B1, “Polyamine transport inhibitors” (Universite Laval, priority 1998, dated 2005)

Key:
Type in all cases: cell-based, human
ZR-75-1 cells = test: Reversal of DFMO-induced growth inhibition by exogenous spermidine; conditions: 50 μM DESC, DESC:spermidine ratio up to 500
Description: For growth studies, ZR-75-1 cells were cultured in MEZR medium or in phenol red-free RPMI 1640 supplemented with 2 mM L-glutamine, 1 mM sodium pyruvate, 15 mM Hepes, antibiotics, 1 nM 17β-estradiol, 0.5 μg of bovine insulin per ml and 5% (v/v) charcoal-treated fetal bovine serum (SD medium), as indicated in the text. When polyamines or polyamine analogs were added to serum-containing media, 1 mM aminoguanidine was added to inhibit bovine serum amine oxidase (BSAO) activity (Morgan, D. M. L. 1989, in The Physiology of Polyamines (Bachrach, U., and Heimer, Y. M. eds) Vol. I, pp. 203-229, CRC Press, Boca Raton). The effect of the transport inhibitors on cell growth was measured by incubating ZR-75-1 cells for 11 days in medium supplemented with antagonist, polyamines and/or 1 mM DFMO as indicated, followed by colorimetric determination of DNA content with 3,4-diaminobenzoic acid (Simard, J., Dauvois, S., Haagensen, D. E., Lėvesque C., Mėrand, Y. and Labriė, F. 1990. Endocrinology 126: 3223-3231).
This possibility was assessed by comparing the ability of DESC to prevent the reversal of DFMO-induced growth inhibition by increasing concentrations of exogenous spermidine.

polyamine transporter [1] = test: Inhibition of [3H]spermidine uptake in ZR-75-1 cells
Description: The rate of putrescine and spermidine transport was determined in ZR-75-1 cells incubated in serum-free RPMI 1640 medium as described (Lessard, M., Zhao, C., Singh, S. M. and Poulin, R. 1995. J. Biol. Chem. 270: 1685-1694), using [^3H]putrescine (30 Ci/mol) and [^3H]spermidine (20 Ci/mol), respectively as substrates for a 20 minute-assay period. Spermine uptake was similarly determined, using 1 μM [^14C]spermine (32 Ci/mol) as substrate. Uptake activity was expressed per amount of DNA as fluorometrically determined using 3,4-diaminobenzoic acid (Simard, J., Dauvois, S., Haagensen, D. E., Lėvesque, C., Mėrand, Y. and Labrie, F. 1990. Endocrinology, 126: 3223-3231). For the determination of spermidine uptake activity in CHO-K1 cells, 80% confluent cell monolayers were rinsed twice with PBS and incubated for 20 minutes at 37° C. in 400 μl of buffer A (20 mM Tris-HCl, pH 7.4; 0.42 mM CaCl2; 0.41 mM MgSO4; 103 mM NaCl; 5.7 mM KCl; 1.1 mM D-glucose) containing 5 μM [^3H]spermidine (20 Ci/mol). Cell cultures were then washed twice with 1 ml PBS containing 5.7 mM sym-norspermidine. Cells were then lysed with 200-μl aliquot of 1 N NaOH and incubated for 30 minutes at 60° C. After neutralization with 200 μl of 1 N HCl, radioactivity was determined from a 250-μl of the cell lysate by scintillation counting. Uptake activity was expressed per amount of total cellular protein as determined by the method of Bradford (Bradford, M. M. 1976. Anal. Biochem. 72: 248-254). Non-specific binding of radioactive substrate was similarly determined in parallel for both cell lines after a 15 second-incubation with 400 μl of ice-cold uptake solution.
Kinetic analysis of polyamine transport was performed by determining uptake activity in the presence of a 3 μM [^3H]putrescine or 1 μM [^3H]spermidine plus increasing concentrations of nonradioactive substrate. K[…] Ki and Vmax values were then estimated by Lineweaver-Burke analysis. For competitive inhibitors, Ki values were also estimated by measuring uptake activity in the presence of logarithmically increasing concentrations of antagonist, and using the Cheng-Prusoff equation (Cheng, Y.-C. and Prusoff, W. H. 1973. Biochem. Pharmacol. 22: 3099-3108) by iterative curve fitting for a sigmoidal curve. For mixed competitive/noncompetitive inhibition, two methods were used to calculate kinetic constants. First, the equation [drawing 2] where v, s, and i are the transport velocity, substrate concentration and inhibitor concentration respectively, was used to calculate the inhibition constants for inhibitor/carrier complex formation (Ki) and carrier/inhibitor/substrate complex formation (Ki′) (Dixon, M. and Webb, E. C. 1976. Enzymes, 3rd Ed., Academic Press, San Diego, Calif.). […]
In order to evaluate the effectiveness of dimeric triamines as polyamine transport inhibitors, we synthesized N,N′-bis(3-aminopropyl),N,N′-bis(4-aminobutyl)cystamine or BABAC (structure 1, FIG. 25; FIG. 31), and its thiol form N-(3-aminopropyl),N-(4-aminobutyl)cysteamine or AAC (FIG. 31) according to Scheme 4 described above (FIG. 30), using spermidine as a precursor polyamine. The ability of BABAC and AAC to inhibit the intracellular uptake of radio-labeled putrescine and spermidine in the ZR-75-1 human breast cancer cell line was then determined according to standard published procedures (Lessard, et al. and Poulin, et al.) Briefly, ZR-75-1 cells were grown for four days in twenty-four well plates in RPMI 1640 medium supplemented with 10% fetal bovine serum.

polyamine transporter [2] = test: Inhibition of [14C]spermine uptake in ZR-75-1 cells; conditions: 3μM substrate (Example 11), read-out: Ki, [14C]spermine transport

For `NCCCNCCCC(NCCCN)C(=O)NCCSSCCNC(=O)C(CCCNCCCN)NCCCN` (stereo not shown) [DESC, 2,2′-dithiobis(N-ethyl-spermine-5-carboxamide)], the “Ability to prevent reversal of DFMO-induced growth inhibition by spermidine” value (ZR-75-1 cells) was “unable to prevent the reversal”, the Ki (polyamine transporter [1]; FIG. 32, 20 μM and 3 μM substrate, respectively, read-out: Apparent Ki, spermidine uptake) was 5.6 µM and the Ki (polyamine transporter [1]; this work, read-out: Ki, spermidine transport) was 2.7 ± 1.1 µM. It also gave a Ki (polyamine transporter [2]) of 17 µM.
